The values that follow come from publication PMC9223764, “In Vitro Selection and Characterization of HIV-1 Variants with Increased Resistance to LP-40, Enfuvirtide-Based Lipopeptide Inhibitor” (International Journal of Molecular Sciences, 2022).

Several values for one entry are separate records, joined by “and”; a condition that tells them apart may be missing. Identical values can stand only once. Where a SMILES comes first, the peptide text is derived from it. The star is where a group is joined. Palmitoyl = CCCCCCCCCCCCCCCC(=O)*

What all share (assay type): cell-based
The subject of experiment [1] is HIV-1 NL4-3 gp41 A21T pseudovirus. To be noted: Table 2; for IC50: A21T, TZM-bl cells, 48 h, luciferase, mean ± SD, triplicate, repeated three times. On the procedure:
(§1) The entry abilities of A15V, L57H, R68G, G86D, C87Y, E119G, and N140S were almost completely lost, corresponding to LP40-V6, LP40-V7, T20-V9, LP40-V3, LP40-V5, LP40-V4, and T20-V5, respectively, so it was determined that these mutation sites might be lethal mutations. […] The differences between the wild-type envelope proteins and serial mutant proteins in mediating membrane fusion were compared using a double-separated protein-based fusion experimental system. […] G20V, A21T, E119G, and Y127H had only an approximately 10% fusion capacity, and L33S, N42D, N42T, and N43S had less than 50% fusion capacity, but N140S had approximately 60% fusion capacity (Figure 6B). […] Among them, we selected the fusion ability of the sixth hour to evaluate the fusion activities of the mutant strains (Figure 6B).
(§2) Viral RNA was extracted from the supernatant, and, after reverse transcription, the cDNA was amplified using PCR. These amplified DNA were connected to the T-Easy vector and transformed to Trans 2-Blue Chemically Competent Cells. These sequences were determined via sequencing. The expression plasmids, which contained different HIV-1NL4-3 Env mutants, were constructed using DNA assembly (NEBuilder® HiFi DNA Assembly Master Mix). In brief, two primers were used to amplify Env, and the other two primers were used to amplify the vector fragment. The products of PCR were purified with a 20–25 bp overlap in the terminal of Env and the vector fragment Env and the vector fragment were added to the DNA assembly master mix at […] for 15 min and then transformed to Trans 2-Blue Chemically Competent Cells. Additionally, a single-point mutation was generated using double-stranded DNA templates and a selection of mutants with a restriction enzyme (DpnI) as described previously. The successful mutations were confirmed via sequencing.
(§3) The infectivity of HIV Env mutants and the inhibitory activities of membrane fusion inhibitors on mutants in TZM-bl cells were measured using a single-cycle infection assay as described previously. Briefly, the HIV pseudovirus was packed using an Env-coding plasmid, and pSG3ΔEnv was co-transfected into HEK293T cells. pSG3ΔEnv encodes an Env-defective, luciferase-expressing HIV-1 genome. After the pseudoviruses were harvested and filtrated, the amount of pseudoviruses was fixed via P24 antigen, and their infectivity was determined in TZM-bl cells. In order to measure the inhibitory activities of the inhibitors, inhibitors diluted serially 3-fold were mixed with an equal volume of pseudoviruses, and then 100 µL 1 × 10^5/mL TZM-bl cells were added to the mixture and incubated at 37 °C with 5% CO2 for 48 h. After that, TZM-bl cells were lysed using reporter lysis buffer, and IC50 values were calculated according to luciferase activity measured by luciferase assay reagents and a luminescence counter (Promega, Madison, WI, USA).

Experiment [2] concerns HIV-1 NL4-3 gp41 A50V pseudovirus. The settings on record: Table 2; for IC50: A50V, TZM-bl cells, 48 h, luciferase, mean ± SD, triplicate, repeated three times. On the procedure: as §1, §2, §3
Experiment [3] concerns HIV-1 NL4-3 gp41 A71V pseudovirus. The settings on record: Table 2; for IC50: A71V, TZM-bl cells, 48 h, luciferase, mean ± SD, triplicate, repeated three times. On the procedure:
as §1, §2, §3

For experiment [4], the system named is HIV-1 NL4-3 gp41 D36G pseudovirus. The settings on record: Table 2; for IC50: D36G, TZM-bl cells, 48 h, luciferase, mean ± SD, triplicate, repeated three times. On the procedure: as §1, §2, §3
In experiment [5] the test system is HIV-1 NL4-3 gp41 E137K pseudovirus. To be noted: Table 2; for IC50: E137K, TZM-bl cells, 48 h, luciferase, mean ± SD, triplicate, repeated three times. On the procedure:
as §1, §2, §3

The test system of experiment [6] is HIV-1 NL4-3 gp41 G20V pseudovirus. The settings on record: Table 2; for IC50: G20V, TZM-bl cells, 48 h, luciferase, mean ± SD, triplicate, repeated three times. On the procedure:
as §1, §2, §3

The subject of experiment [7] is HIV-1 NL4-3 gp41 N126K pseudovirus. The settings on record: Table 2; for IC50: N126K, TZM-bl cells, 48 h, luciferase, mean ± SD, triplicate, repeated three times. On the procedure:
as §1, §2, §3

Experiment [8] has as its system HIV-1 NL4-3 gp41 N42D pseudovirus. To be noted: Table 2; for IC50: N42D, TZM-bl cells, 48 h, luciferase, mean ± SD, triplicate, repeated three times. On the procedure:
as §1, §2, §3

In experiment [9] the test system is HIV-1 NL4-3 gp41 N42T pseudovirus. The settings on record: Table 2; for IC50: N42T, TZM-bl cells, 48 h, luciferase, mean ± SD, triplicate, repeated three times. On the procedure: as §1, §2, §3
Experiment [10] has as its system HIV-1 NL4-3 gp41 N43S pseudovirus. The settings on record: Table 2; for IC50: N43S, TZM-bl cells, 48 h, luciferase, mean ± SD, triplicate, repeated three times. The protocol:
as §1, §2, §3

The subject of experiment [11] is HIV-1 NL4-3 gp41 S129N pseudovirus. The settings on record: Table 2; for IC50: S129N, TZM-bl cells, 48 h, luciferase, mean ± SD, triplicate, repeated three times. On the procedure:
as §1, §2, §3

The test system of experiment [12] is HIV-1 NL4-3 gp41 S35P pseudovirus. To be noted: Table 2; for IC50: S35P, TZM-bl cells, 48 h, luciferase, mean ± SD, triplicate, repeated three times. The protocol:
as §1, §2, §3

Experiment [13] deals with HIV-1 NL4-3 gp41 V38A pseudovirus. The settings on record: Table 2; for IC50: V38A, TZM-bl cells, 48 h, luciferase, mean ± SD, triplicate, repeated three times. The protocol:
as §1, §2, §3

For experiment [14], the system named is HIV-1 NL4-3 gp41 V38T pseudovirus. To be noted: Table 2; for IC50: V38T, TZM-bl cells, 48 h, luciferase, mean ± SD, triplicate, repeated three times. The protocol:
as §1, §2, §3

Experiment [15] deals with HIV-1 NL4-3 gp41 Y127H pseudovirus. To be noted: Table 2; for IC50: Y127H, TZM-bl cells, 48 h, luciferase, mean ± SD, triplicate, repeated three times. The protocol:
as §1, §2, §3

With Enfuvirtide, the IC50 (commonly the midpoint of a concentration-inhibition curve) was found to be 58.9 ± 9.24 nM in experiment [1]; 162 ± 69.4 nM in [2]; 46.5 ± 12.5 nM in experiment [3]; 6 ± 1.68 nM in experiment [4]; 68.5 ± 20.1 nM in experiment [5]; 49.1 ± 10.9 nM in experiment [6]. Further, the IC50 in experiment [7] amounted to 117 ± 37.4 nM; in experiment [8], 164 ± 26.8 nM; in [9], 413 ± 82 nM; in [10] it was 540 ± 91.9 nM; in [11], 70.3 ± 19.8 nM; in [12], 138 ± 10.6 nM. Also, the IC50 in [13] is 1540 ± 22 nM; in experiment [14], 991 ± 216 nM; in [15] it was 23.7 ± 2.63 nM.

Turning to `CCCCCCCCCCCCCCCC(=O)NCCCC[C@H](NC(=O)[C@H](CC(=O)O)NC(=O)[C@H](CC(C)C)NC(=O)[C@H](CCC(=O)O)NC(=O)[C@H](CC(C)C)NC(=O)[C@H](CC(C)C)NC(=O)[C@H](CCC(=O)O)NC(=O)[C@H](CCC(N)=O)NC(=O)[C@H](CCC(=O)O)NC(=O)[C@H](CC(N)=O)NC(=O)[C@H](CCCCN)NC(=O)[C@H](CCC(=O)O)NC(=O)[C@H](CCC(N)=O)NC(=O)[C@H](CCC(N)=O)NC(=O)[C@H](CC(N)=O)NC(=O)[C@H](CCC(N)=O)NC(=O)[C@H](CO)NC(=O)[C@H](CCC(=O)O)NC(=O)[C@H](CCC(=O)O)NC(=O)[C@@H](NC(=O)[C@H](CC(C)C)NC(=O)[C@H](CO)NC(=O)[C@H](Cc1c[nH]cn1)NC(=O)[C@@H](NC(=O)[C@H](CC(C)C)NC(=O)[C@H](CO)NC(=O)[C@@H](NC(=O)[C@H](Cc1ccc(O)cc1)NC(C)=O)[C@@H](C)O)[C@@H](C)CC)[C@@H](C)CC)C(N)=O` [LP-40] (Ac-YTSLIHSLIEESQNQQEKNEQELLELDK(Palmitoyl)-NH2), the “Fold change in IC50” value in experiment [1] (A21T relative to WT NL4-3) is 0.85 fold; in [2] (A50V relative to WT NL4-3), 1.87 fold; in experiment [3] (A71V relative to WT NL4-3), 1.37 fold; in [4] (D36G relative to WT NL4-3), 0.07 fold; in experiment [5] (E137K relative to WT NL4-3) it was 1.35 fold; in [6] (G20V relative to WT NL4-3), 6.5 fold and 6.49 fold. In addition, the “Fold change in IC50” value in experiment [7] (N126K relative to WT NL4-3) was 9.7 fold and 9.65 fold; in [8] (N42D relative to WT NL4-3), 3.46 fold; in [9] (N42T relative to WT NL4-3), 40.18 fold; in experiment [10] (N43S relative to WT NL4-3), 11.31 fold; in experiment [11] (S129N relative to WT NL4-3), 1.08 fold; in experiment [12] (S35P relative to WT NL4-3), 0.69 fold. The “Fold change in IC50” value is 110.56 fold in experiment [13] (V38A relative to WT NL4-3), 46.03 fold in [14] (V38T relative to WT NL4-3) and 0.18 fold in experiment [15] (Y127H relative to WT NL4-3). In addition, the IC50 in [1] came out at 26.8 ± 8.36 nM; in experiment [2], 58.8 ± 13.7 nM; in experiment [3] it was 43.2 ± 8.19 nM; in [4], 2.22 ± 0.57 nM; in experiment [5], 42.6 ± 11.7 nM; in experiment [6], 205 ± 47.2 nM. The IC50 worked out at 304 ± 50.5 nM in [7]; 109 ± 18.4 nM in experiment [8]; 1270 ± 167 nM in experiment [9]; 357 ± 117 nM in experiment [10]; 34 ± 10 nM in [11]; 21.6 ± 5.15 nM in experiment [12]. Also, the IC50 in experiment [13] is 3490 ± 423 nM; in experiment [14], 1450 ± 237 nM; in experiment [15] it was 5.74 ± 1.86 nM.
